Assay results taken from patent US10035800B2 (AbbVie Inc., priority 2013, dated 2018).

Assays:
BRD4 (BDI_K57-E168) = target: T1, BRD4 (BDI_K57-E168) (Homo sapiens, UniProt O60885); assay: TR-FRET bromodomain binding assay, first bromodomain of BRD4; settings: TR-FRET assay protocol G (compound 0.92 μM-15 pM); 100 nM probe
T1 construct: BD1: amino acids K57-E168; made in house
Procedure, shortened: (§1)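 Probe displacement by TR-FRET: 8 nM His-BRD4 bromodomain, 1 nM Eu-anti-His, Alexa647 BET-inhibitor probe at 100 nM (BDI) or 30 nM (BDII); 20 mM Na phosphate pH 6.0, 2% DMSO; 1 h RT. Ex 340, Em 495/520. IC50 from 4PL fit; Ki from IC50, probe Kd and probe concentration.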

BRD4 (BDII_E352-M457) = target: T2, BRD4 (BDII_E352-M457) (Homo sapiens, UniProt O60885); assay: TR-FRET bromodomain binding assay, second bromodomain of BRD4; settings: TR-FRET assay protocol G (compound 0.92 μM-15 pM); 30 nM probe
T2 construct: protocol; made in house
Procedure, shortened: as §1

[1] = system: breast cancer cell line MX-1; assay: MX-1 cell line proliferation assay; format: cell-based; settings: MX-1 cells, 3-day proliferation assay, Cell Titer Glo; read-out: Cellular proliferation: EC50
Procedure, shortened: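 MX-1 cells at 5000/well, in RPMI 1640 with 10% FBS, were exposed to compounds for 3 days. Final concentrations ranged 3 μM–0.1 nM or 1 μM–0.03 nM, in 3-fold steps. Cell Titer Glo luminescence was normalized to DMSO and fitted sigmoidally for EC50; overall MSR 2.1.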

Row | SMILES | Ki (BRD4 (BDI_K57-E168)) [nM] | Ki (BRD4 (BDII_E352-M457)) [nM] | EC50 [1] [nM]
1 | CN1CCN(Cc2[nH]c3c(=O)n(C)cc4c3c2CN(c2ccc(Cl)cc2)c2ccccc2-4)CC1 [Example 146, 4-(4-chlorophenyl)-10-methyl-2-((4-methylpiperazin-1-yl)methyl)-3,4-dihydro-1H-1,4,10-triazadibenzo[cd,f]azulen-11(10H)-one] | 1.42 | 17 | 124
2 | COCCCC1c2c[nH]c3c(=O)n(C)cc(c23)-c2cc(CS(C)(=O)=O)ccc2N1c1ccc(F)cc1F (stereo not drawn) [Example 147, 4-(2,4-difluorophenyl)-3-(3-methoxypropyl)-10-methyl-7-((methylsulfonyl)methyl)-3,4-dihydro-1H-1,4,10-triazadibenzo[cd,f]azulen-11(10H)-one] | 7.02 | 0.97 | 20.3
3 | CCOCCCC1c2c[nH]c3c(=O)n(C)cc(c23)-c2cc(CS(C)(=O)=O)ccc2N1c1ccc(F)cc1F (stereo not drawn) [Example 148, 4-(2,4-difluorophenyl)-3-(3-ethoxypropyl)-10-methyl-7-((methylsulfonyl)methyl)-3,4-dihydro-1H-1,4,10-triazadibenzo[cd,f]azulen-11(10H)-one] | 6.77 | 0.54 | 31.9
4 | COC(=O)CNC(=O)C1c2c[nH]c3c(=O)n(C)cc(c23)-c2cc(CS(C)(=O)=O)ccc2N1c1ccc(F)cc1F (stereo not drawn) [Example 155, methyl 2-(4-(2,4-difluorophenyl)-10-methyl-7-((methylsulfonyl)methyl)-11-oxo-3,4,10,11-tetrahydro-1H-1,4,10-triazadibenzo[cd,f]azulene-3-carboxamido)acetate] | 42.7 | 47.8 | 349
5 | Cn1cc2c3c(c[nH]c3c1=O)C(C(=O)NCCc1ccccc1)N(c1ccc(F)cc1F)c1ccc(CS(C)(=O)=O)cc1-2 (stereo not drawn) [Example 156, 4-(2,4-difluorophenyl)-10-methyl-7-((methylsulfonyl)methyl)-11-oxo-N-phenethyl-3,4,10,11-tetrahydro-1H-1,4,10-triazadibenzo[cd,f]azulene-3-carboxamide] | 46.8 | 42.1 | 214
6 | CCCCNC(=O)C1c2c[nH]c3c(=O)n(C)cc(c23)-c2cc(CS(C)(=O)=O)ccc2N1c1ccc(F)cc1F (stereo not drawn) [Example 157, N-butyl-4-(2,4-difluorophenyl)-10-methyl-7-((methylsulfonyl)methyl)-11-oxo-3,4,10,11-tetrahydro-1H-1,4,10-triazadibenzo[cd,f]azulene-3-carboxamide] | 39.6 | 23.9 | 77.4
7 | CC(C)CNC(=O)C1c2c[nH]c3c(=O)n(C)cc(c23)-c2cc(CS(C)(=O)=O)ccc2N1c1ccc(F)cc1F (stereo not drawn) [Example 161, 4-(2,4-difluorophenyl)-N-isobutyl-10-methyl-7-((methylsulfonyl)methyl)-11-oxo-3,4,10,11-tetrahydro-1H-1,4,10-triazadibenzo[cd,f]azulene-3-carboxamide] | 32.1 | 21.4 | 41.6
8 | Cn1cc2c3c(c[nH]c3c1=O)C(C(=O)NCC1CC1)N(c1ccc(F)cc1F)c1ccc(CS(C)(=O)=O)cc1-2 (stereo not drawn) [Example 164, N-(cyclopropylmethyl)-4-(2,4-difluorophenyl)-10-methyl-7-((methylsulfonyl)methyl)-11-oxo-3,4,10,11-tetrahydro-1H-1,4,10-triazadibenzo[cd,f]azulene-3-carboxamide] | 41.7 | 30 | 72.5
9 | Cn1cc2c3c(c[nH]c3c1=O)CN(C(=O)CC(C)(C)C)c1c(F)cc(F)cc1-2 [Example 169, 4-(3,3-dimethylbutanoyl)-5,7-difluoro-10-methyl-3,4-dihydro-1H-1,4,10-triazadibenzo[cd,f]azulen-11(10H)-one] | 12.4 | 4.67 | 69.9
10 | Cn1cc2c3c(c[nH]c3c1=O)CN(C1CCC(NC(=O)OC(C)(C)C)CC1)c1ccc(S(C)(=O)=O)cc1-2 (stereo not drawn) [Example 170, tert-butyl ((trans)-4-(10-methyl-7-(methylsulfonyl)-11-oxo-10,11-dihydro-1H-1,4,10-triazadibenzo[cd,f]azulen-4(3H)-yl)cyclohexyl)carbamate] | 7.07 | 25.2 | 57.6
11 | Cn1cc2c3c(c[nH]c3c1=O)CN(S(=O)(=O)C1CC1)c1ccc(CS(C)(=O)=O)cc1-2 [Example 172, 4-(cyclopropylsulfonyl)-10-methyl-7-((methylsulfonyl)methyl)-3,4-dihydro-1H-1,4,10-triazadibenzo[cd,f]azulen-11(10H)-one] | 57.8 | 12.8 | 551
12 | CNCCCC1c2c[nH]c3c(=O)n(C)cc(c23)-c2cc(CS(C)(=O)=O)ccc2N1c1ccc(F)cc1F (stereo not drawn) [Example 174, 4-(2,4-difluorophenyl)-10-methyl-3-(3-(methylamino)propyl)-7-((methylsulfonyl)methyl)-3,4-dihydro-1H-1,4,10-triazadibenzo[cd,f]azulen-11(10H)-one] | 12.6 | 1.53 | 239
13 | CN1CCN(Cc2[nH]c3c(=O)n(C)cc4c3c2CN(c2ccc(Cl)cc2)c2ccc(CS(C)(=O)=O)cc2-4)CC1 [Example 176, 4-(4-chlorophenyl)-10-methyl-2-((4-methylpiperazin-1-yl)methyl)-7-((methylsulfonyl)methyl)-3,4-dihydro-1H-1,4,10-triazadibenzo[cd,f]azulen-11(10H)-one] | 1.01 | 3.55 | 14.2
14 | Cn1cc2c3c(c[nH]c3c1=O)CN(c1ccc(F)cc1)c1ccc(CC#N)cc1-2 [Example 177, 2-(4-(4-fluorophenyl)-10-methyl-11-oxo-3,4,10,11-tetrahydro-1H-1,4,10-triazadibenzo[cd,f]azulen-7-yl)acetonitrile] | 2.02 | 1.27 | 3.72
15 | Cn1cc2c3c(c[nH]c3c1=O)CN(CC(C)(C)CN1CCCC1)c1ccc(CS(C)(=O)=O)cc1-2 [Example 178] | 4.36 | 4.38 | 123
16 | COCC(C)N1Cc2c[nH]c3c(=O)n(C)cc(c23)-c2cc(CS(C)(=O)=O)ccc21 (stereo not drawn) [Example 185, 4-(1-methoxypropan-2-yl)-10-methyl-7-((methylsulfonyl)methyl)-3,4-dihydro-1H-1,4,10-triazadibenzo[cd,f]azulen-11(10H)-one] | 4.19 | 10.2 | 28.3
17 | Cn1cc2c3c(c(CN4CCOCC4)[nH]c3c1=O)CN(c1ccc(Cl)cc1)c1ccc(CS(C)(=O)=O)cc1-2 [Example 193, 4-(4-chlorophenyl)-10-methyl-7-((methylsulfonyl)methyl)-2-(morpholinomethyl)-3,4-dihydro-1H-1,4,10-triazadibenzo[cd,f]azulen-11(10H)-one] | 1.85 | 12.4 | 31.7
18 | Cn1cc2c3c(c[nH]c3c1=O)CN(C1CCC(NC(=O)OC(C)(C)C)CC1)c1ccc(CS(C)(=O)=O)cc1-2 (stereo not drawn) [Example 197, tert-butyl ((trans)-4-(10-methyl-7-((methylsulfonyl)methyl)-11-oxo-10,11-dihydro-1H-1,4,10-triazadibenzo[cd,f]azulen-4(3H)-yl)cyclohexyl)carbamate] | 1.52 | 2.65 | 2.66
